From ChEMBL document CHEMBL4422630, “Identification of substituted 5-membered heterocyclic compounds as potential anti-leukemic agents” (Eur J Med Chem, 2019)
The source made the active and inactive calls. The rule behind the calls is not given here.

What was measured:
NALM-6 = assay: Antiproliferative activity against human NALM6 assessed as reduction in cell viability after 72 hrs by CellTiter-Glo assay; format: functional, cell-based; conditions: NALM-6, 72 h
[1] = Therapeutic index, ratio of EC50 for human BJ cells to EC50 for mouse B-ALL cells expressing wild type BCR-ABL; format: toxicity; conditions: human BJ cells versus mouse B-ALL cells expressing wild type BCR-ABL; read-out: Ratio EC50
KOPN-8 [2] = assay: Cell cycle arrest in human KOPN8 cells assessed as increase in accumulation of cells at S phase at 5 uM after 24 hrs by propidium iodide staining-based flow cytometric analysis; format: functional
SUP-B15 [3] = assay: Induction of apoptosis in human SUP-B15 cells assessed as late apoptotic cells level after 24 hrs by Annexin V and propidium iodide staining based flow cytometry (reference value: 83%); format: functional
[4] = Permeability of compound at pH 7.4 by PAMPA; format: ADME
B-ALL [5] = assay: Antiproliferative activity against mouse B-ALL BCR-ABL double knockout cells assessed as reduction in cell viability after 72 hrs by CellTiter-Glo assay; format: functional, cell-based
K562 = assay: Antiproliferative activity against human K562 assessed as reduction in cell viability after 72 hrs by CellTiter-Glo assay; format: functional, cell-based; conditions: K562, 72 h
KOPN-8 [6] = assay: Induction of apoptosis in human KOPN8 cells assessed as late apoptotic cells level after 24 hrs by Annexin V and propidium iodide staining based flow cytometry (reference value: 2%); format: functional
[7] = Half life in simulated gastric fluid; format: ADME
KOPN-8 [8] = assay: Cell cycle arrest in human KOPN8 cells at 5 uM after 24 hrs by propidium iodide staining-based flow cytometric analysis; format: functional
B-ALL [9] = assay: Induction of apoptosis in mouse B-ALL BCR-ABL double knockout cells assessed as increase in caspase 3/7 activity after 24 hrs by caspase-Glo 3/7 reagent based luminescence assay; format: functional, cell-based
[10] = Intrinsic clearance in mouse microsomes; format: ADME, Microsome
MDA-MB-231 [11] = assay: Cytotoxicity against human MDA-MB-231 cells up to 30 uM after 24 hrs by propidium iodide staining-based fluorescence assay; format: functional, cell-based
[12] = Half life in human microsomes; format: ADME, Microsome
MV4-11 = assay: Antiproliferative activity against human MV411 assessed as reduction in cell viability after 72 hrs by CellTiter-Glo assay; format: functional, cell-based; conditions: MV4-11, 72 h
SUP-B15 [13] = assay: Induction of apoptosis in human SUP-B15 cells assessed as decrease in cell viability at 5 uM after 24 hrs by Annexin V/propidium iodide staining-based flow cytometric analysis; format: functional
[14] = Apparent permeability of compound form apical to basolateral side in human Caco2 cells; format: ADME, cell-based; conditions: Caco-2
[15] = Intrinsic clearance in human microsomes; format: ADME, Microsome
KOPN-8 [16] = assay: Induction of apoptosis in human KOPN8 cells assessed as late apoptotic cells level after 24 hrs by Annexin V and propidium iodide staining based flow cytometry (reference value: 96.4%); format: functional
[17] = Efflux ratio of apparent permeability across basolateral to apical side over apical to basolateral side in human Caco2 cells; format: ADME, cell-based; conditions: Caco-2
[18] = Half life in mouse plasma; format: ADME, cell-free
[19] = Half life in mouse microsomes; format: ADME, Microsome
KOPN-8 [20] = assay: Antiproliferative activity against human KOPN8 assessed as reduction in cell viability after 72 hrs by CellTiter-Glo assay; format: functional, cell-based; conditions: KOPN-8, 72 h
[21] = Permeability of compound at pH 7.4 assessed as drug retention by PAMPA; format: ADME
SUP-B15 [22] = assay: Induction of apoptosis in human SUP-B15 cells assessed as decrease in cell viability at […] after 24 hrs by ApoTox-Glo triplex assay; format: functional, cell-based
SUP-B15 [23] = assay: Induction of apoptosis in human SUP-B15 cells assessed as late apoptotic cells level after 24 hrs by Annexin V and propidium iodide staining based flow cytometry (reference value: 13.5%); format: functional
B-ALL [24] = assay: Antiproliferative activity against mouse B-ALL cells expressing wild type BCR-ABL assessed as reduction in cell viability after 72 hrs by CellTiter-Glo assay; format: functional, cell-based
KOPN-8 [25] = assay: Induction of apoptosis in human KOPN8 cells assessed as decrease in cell viability at 5 uM after 24 hrs by Annexin V/propidium iodide staining-based flow cytometric analysis; format: functional
SUP-B15 [26] = assay: Cell cycle arrest in human SUP-B15 cells assessed as accumulation of cells at G1/G0 phase at 5 uM after 24 hrs by propidium iodide staining-based flow cytometric analysis; format: functional
SUP-B15 [27] = assay: Cytotoxicity in human SUP-B15 cells assessed as decrease in cell viability after 24 hrs by bis-AAF-RF110 dye based assay; format: functional
[28] = Half life in human plasma; format: ADME, cell-free
BJ = assay: Antiproliferative activity against human BJ assessed as cell viability after 72 hrs by CellTiter-Glo assay; format: functional, cell-based
SUP-B15 [29] = assay: Antiproliferative activity against human SUP-B15 assessed as reduction in cell viability after 72 hrs by CellTiter-Glo assay; format: functional, cell-based; conditions: SUP-B15, 72 h
MDA-MB-231 [30] = assay: Cytotoxicity against human MDA-MB-231 cells at 30 uM after 24 hrs by propidium iodide staining-based fluorescence assay; format: functional, cell-based
SUP-B15 [31] = assay: Induction of apoptosis in human SUP-B15 cells assessed as increase in caspase 3/7 activity after 24 hrs by caspase-Glo 3/7 reagent based luminescence assay; format: functional, cell-based
[32] = Apparent permeability of compound form basolateral to apical side in human Caco2 cells; format: ADME, cell-based; conditions: Caco-2
SUM149PT [33] = assay: Cytotoxicity against human SUM149 cells at 1 uM after 24 hrs by propidium iodide staining-based fluorescence assay relative to control; format: functional, cell-based
UoC-B1 = assay: Antiproliferative activity against human UOCB1 assessed as reduction in cell viability after 72 hrs by CellTiter-Glo assay; format: functional, cell-based; conditions: UoC-B1, 72 h
KOPN-8 [34] = assay: Cell cycle arrest in human KOPN8 cells assessed as accumulation of cells at G1/G0 phase at 5 uM after 24 hrs by propidium iodide staining-based flow cytometric analysis relative to control; format: functional
KOPN-8 [35] = assay: Cell cycle arrest in human KOPN8 cells assessed as accumulation of cells at G2/M phase at 5 uM after 24 hrs by propidium iodide staining-based flow cytometric analysis relative to control; format: functional
[36] = Protein binding in mouse plasma; format: ADME, cell-free; conditions: read-out: PPB (converted)
SUM149PT [37] = assay: Cytotoxicity against human SUM149 cells at 100 uM after 24 hrs by propidium iodide staining-based fluorescence assay relative to control; format: functional
SUP-B15 [38] = assay: Cell cycle arrest in human SUP-B15 cells assessed as accumulation of cells at G2/M phase at 5 uM after 24 hrs by propidium iodide staining-based flow cytometric analysis; format: functional
[39] = Protein binding in human plasma; format: ADME, cell-free; conditions: read-out: PPB (converted)
SUP-B15 [40] = assay: Induction of apoptosis in human SUP-B15 cells assessed as late apoptotic cells level at 2 uM after 24 hrs by Annexin V and propidium iodide staining based flow cytometry (reference value: 13.5%); format: functional
KOPN-8 [41] = assay: Induction of apoptosis in human KOPN8 cells assessed as late apoptotic cells level at 2 uM after 24 hrs by Annexin V and propidium iodide staining based flow cytometry (reference value: 96.4%); format: functional
SUP-B15 [42] = assay: Induction of apoptosis in human SUP-B15 cells assessed as late apoptotic cells level at 2 uM after 24 hrs by Annexin V and propidium iodide staining based flow cytometry (reference value: 83%); format: functional
KOPN-8 [43] = assay: Induction of apoptosis in human KOPN8 cells assessed as late apoptotic cells level at 2 uM after 24 hrs by Annexin V and propidium iodide staining based flow cytometry (reference value: 2%); format: functional

## CC(C)C(=O)Nc1ccc2oc(-c3ccc(C(C)(C)C)cc3)nc2c1
NALM-6
  EC50: 0.604 µM
[1]
  selectivity ratio: > 9
KOPN-8 [2]
  Activity: Active
SUP-B15 [3]
  Activity: 69.2%
[4]
  Peff: 1916.4 ×10⁻⁶ cm/s
B-ALL [5]
  EC50: > 43.3 µM
K562
  EC50: 8.36 µM
KOPN-8 [6]
  Activity: 4.8%
[7]
  half-life: > 48 h
KOPN-8 [8]
  Activity: inactive
B-ALL [9]
  Activity: inactive
[10]
  CLint scaled: 16.8 mL/min/kg
MDA-MB-231 [11]
  Activity: inactive
[12]
  half-life: 0.86 h
MV4-11
  EC50: 0.603 µM
SUP-B15 [13]
  Activity: Active
[14]
  Papp A→B: 7.26 ×10⁻⁶ cm/s
[15]
  CLint scaled: 24.3 mL/min/kg
KOPN-8 [16]
  Activity: 94.4%
[17]
  efflux ratio: 0.31
[18]
  half-life: > 48 h
[19]
  half-life: 3.41 h
KOPN-8 [20]
  EC50: 1.11 µM
[21]
  permeability: 53.6%
SUP-B15 [22]
  Activity: Active
SUP-B15 [23]
  Activity: 6.3%
B-ALL [24]
  EC50: 4.65 µM
KOPN-8 [25]
  Activity: Active
SUP-B15 [26]
  Activity: Active
SUP-B15 [27]
  Activity: Active
[28]
  half-life: > 48 h
BJ
  EC50: > 43.3 µM
SUP-B15 [29]
  EC50: 1.32 µM
MDA-MB-231 [30]
  Activity: Active
SUP-B15 [31]
  Activity: Active
[32]
  Papp B→A: 2.26 ×10⁻⁶ cm/s
SUM149PT [33]
  Activity: Active
UoC-B1
  EC50: > 43.3 µM

## Cc1ccc(S(=O)(=O)Cc2nc(-c3ccc(C(=O)NCc4cccnc4)cc3)oc2C)cc1
NALM-6
  EC50: 0.026 µM
KOPN-8 [34]
  Activity: 10%
[1]
  selectivity ratio: 34
KOPN-8 [2]
  Activity: Active
SUP-B15 [3]
  Activity: 69.9%
[4]; read-out: Peff
  Papp: 617 ×10⁻⁶ cm/s
B-ALL [5]
  EC50: 0.061 µM
K562
  EC50: 4.6 µM
KOPN-8 [6]
  Activity: 2.9%
[7]
  half-life: > 48 h
B-ALL [9]
  Activity: inactive
[10]
  CLint scaled: 47.5 mL/min/kg
KOPN-8 [35]
  Activity: 12%
MDA-MB-231 [11]
  Activity: inactive
[12]
  half-life: 1.44 h
MV4-11
  EC50: 3.8 µM
[36]
  fraction unbound: 0.023
SUM149PT [37]
  Activity: 50%
SUP-B15 [13]
  Activity: Active
[14]
  Papp A→B: 10.6 ×10⁻⁶ cm/s
[15]
  CLint scaled: 14.5 mL/min/kg
KOPN-8 [16]
  Activity: 95.8%
[17]
  efflux ratio: 3.5
[18]
  half-life: > 48 h
[19]
  half-life: 1.2 h
SUP-B15 [38]
  Activity: inactive
KOPN-8 [20]
  EC50: 1.23 µM
[21]
  permeability: 24.8%
SUP-B15 [22]
  Activity: Active
SUP-B15 [23]
  Activity: 7.6%
B-ALL [24]
  EC50: 0.072 µM
KOPN-8 [25]
  Activity: Active
[39]
  fraction unbound: 0.042
SUP-B15 [26]
  Activity: inactive
SUP-B15 [27]
  Activity: Active
[28]
  half-life: > 48 h
BJ
  EC50: 2.49 µM
SUP-B15 [29]
  EC50: 1.1 µM
MDA-MB-231 [30]
  Activity: Active
SUP-B15 [31]
  Activity: Active
[32]
  Papp B→A: 37.2 ×10⁻⁶ cm/s
UoC-B1
  EC50: > 55 µM

## CN[C@@H]1C[C@H]2O[C@@](C)([C@@H]1OC)n1c3ccccc3c3c4c(c5c6ccccc6n2c5c31)C(=O)NC4 [STAUROSPORINE]
SUP-B15 [40]
  Activity: 52.3%
KOPN-8 [41]
  Activity: 53.2%
SUP-B15 [42]
  Activity: 10%
KOPN-8 [43]
  Activity: 45.2%
